From ChEMBL document CHEMBL1141625, “Potent, selective MCH-1 receptor antagonists” (Bioorg Med Chem Lett, 2008)

Tests used:
[1] = target: Sodium-dependent dopamine transporter (Homo sapiens) (UniProt Q01959); experiment: Inhibition of DAT at 10 uM
[2] = target: T1, Melanin-concentrating hormone receptor 1 (Homo sapiens, UniProt Q99705); experiment: Binding affinity to MCHR1
[3] = target: T1, Melanin-concentrating hormone receptor 1; experiment: Antagonist activity at MCHR1 by cAMP assay; type: functional
[4] = target: D(3) dopamine receptor (Homo sapiens) (UniProt P35462); experiment: Inhibition of dopamine D3 receptor at 10 uM
[5] = target: T2, Alpha-2A adrenergic receptor (Homo sapiens) (UniProt P08913); experiment: Inhibition of adrenergic alpha2A receptor at 10 uM
T2 sequence (whole entry): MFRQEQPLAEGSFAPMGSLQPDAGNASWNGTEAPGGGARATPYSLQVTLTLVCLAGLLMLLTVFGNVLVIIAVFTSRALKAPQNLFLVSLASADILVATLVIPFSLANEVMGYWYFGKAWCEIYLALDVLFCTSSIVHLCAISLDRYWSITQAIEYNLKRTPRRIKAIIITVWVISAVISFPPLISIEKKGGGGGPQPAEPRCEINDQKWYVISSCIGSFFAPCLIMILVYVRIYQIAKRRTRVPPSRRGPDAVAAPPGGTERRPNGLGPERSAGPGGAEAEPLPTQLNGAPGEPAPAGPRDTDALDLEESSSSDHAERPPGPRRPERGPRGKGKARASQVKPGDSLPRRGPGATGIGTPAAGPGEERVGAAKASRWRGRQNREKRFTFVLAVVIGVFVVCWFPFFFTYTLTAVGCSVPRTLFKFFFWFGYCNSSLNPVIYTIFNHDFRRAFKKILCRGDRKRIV

[6] = target: T3, Muscarinic acetylcholine receptor M2 (Homo sapiens) (UniProt P08172); experiment: Inhibition of muscarinic M2 receptor at 10 uM
T3 sequence (whole entry): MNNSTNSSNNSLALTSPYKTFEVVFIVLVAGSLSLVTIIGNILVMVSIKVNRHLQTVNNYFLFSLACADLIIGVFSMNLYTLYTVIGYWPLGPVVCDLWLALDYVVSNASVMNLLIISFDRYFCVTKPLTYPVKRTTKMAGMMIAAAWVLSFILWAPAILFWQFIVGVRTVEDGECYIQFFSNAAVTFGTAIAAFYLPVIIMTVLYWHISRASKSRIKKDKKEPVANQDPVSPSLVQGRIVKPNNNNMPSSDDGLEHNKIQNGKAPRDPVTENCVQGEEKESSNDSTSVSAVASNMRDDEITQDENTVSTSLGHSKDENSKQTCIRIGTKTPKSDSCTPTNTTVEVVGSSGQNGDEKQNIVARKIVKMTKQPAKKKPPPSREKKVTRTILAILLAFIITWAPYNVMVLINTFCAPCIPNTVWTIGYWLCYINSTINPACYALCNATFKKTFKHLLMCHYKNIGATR

[7] = target: T4, 5-hydroxytryptamine receptor 2C (Homo sapiens) (UniProt P28335); experiment: Inhibition of 5HT2C receptor at 10 uM
T4 sequence (whole entry): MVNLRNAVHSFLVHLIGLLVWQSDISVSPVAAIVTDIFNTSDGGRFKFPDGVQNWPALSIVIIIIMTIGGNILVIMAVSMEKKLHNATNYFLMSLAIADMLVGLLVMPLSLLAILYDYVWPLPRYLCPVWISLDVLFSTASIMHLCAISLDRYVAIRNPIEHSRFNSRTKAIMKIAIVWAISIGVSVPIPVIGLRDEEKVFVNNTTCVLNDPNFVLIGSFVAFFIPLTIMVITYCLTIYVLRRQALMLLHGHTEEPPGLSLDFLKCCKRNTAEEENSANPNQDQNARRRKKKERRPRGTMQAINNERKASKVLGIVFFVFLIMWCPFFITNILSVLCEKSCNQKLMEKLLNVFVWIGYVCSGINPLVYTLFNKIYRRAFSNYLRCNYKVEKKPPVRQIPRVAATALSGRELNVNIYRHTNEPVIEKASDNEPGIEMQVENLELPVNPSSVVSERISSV

[8] = target: Somatostatin receptor type 5 (Homo sapiens) (UniProt P35346); experiment: Inhibition of SST5 receptor at 10 uM
[9] = target: Sodium-dependent noradrenaline transporter (Homo sapiens) (UniProt P23975); experiment: Inhibition of NET at 10 uM
[10] = target: Sodium-dependent serotonin transporter (Homo sapiens) (UniProt P31645); experiment: Inhibition of SERT at 10 uM
[11] = target: T5, 5-hydroxytryptamine receptor 1A (Homo sapiens) (UniProt P08908); experiment: Inhibition of 5HT1A receptor at 10 uM
T5 sequence (whole entry): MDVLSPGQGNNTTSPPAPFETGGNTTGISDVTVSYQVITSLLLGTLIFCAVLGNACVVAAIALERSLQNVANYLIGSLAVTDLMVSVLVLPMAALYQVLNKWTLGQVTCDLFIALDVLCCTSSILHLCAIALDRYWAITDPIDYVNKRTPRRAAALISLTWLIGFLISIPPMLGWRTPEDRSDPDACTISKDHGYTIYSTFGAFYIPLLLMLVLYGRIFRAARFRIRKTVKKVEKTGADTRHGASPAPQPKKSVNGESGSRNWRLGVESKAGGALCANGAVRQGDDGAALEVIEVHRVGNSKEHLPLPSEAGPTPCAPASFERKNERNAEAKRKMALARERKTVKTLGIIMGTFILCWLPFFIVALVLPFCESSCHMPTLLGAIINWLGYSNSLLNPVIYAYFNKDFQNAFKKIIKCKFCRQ

[12] = AUC in Sprague-Dawley rat plasma at 5 mg/kg, iv or 30 mg/kg, po; type: ADME, organism-based
[13] = Cmax in Sprague-Dawley rat at 5 mg/kg, iv or 30 mg/kg, po; type: ADME, organism-based; conditions: in vivo
[14] = Clearance in Sprague-Dawley rat at 5 mg/kg, iv or 30 mg/kg, po; type: ADME, organism-based; conditions: in vivo
[15] = Half life in Sprague-Dawley rat at 5 mg/kg, iv or 30 mg/kg, po; type: ADME, organism-based; conditions: in vivo
[16] = Volume of distribution at steady state in Sprague-Dawley rat at 5 mg/kg, iv or 30 mg/kg, po; type: ADME, organism-based; conditions: in vivo, read-out: Vdss
[17] = Oral bioavailability in Sprague-Dawley rat at 30 mg/kg; type: ADME, organism-based; conditions: in vivo
[18] = Ratio of drug level in brain to plasma in Sprague-Dawley rat after 5 mins; type: ADME; conditions: brain and plasma, read-out: BPR
Rattus norvegicus [19] = experiment: Reduction of food intake in high fat diet fed Sprague-Dawley rat at 30 mg/kg, po bid; type: functional; design: scale not given: the % may be the effect or the level left
Rattus norvegicus [20] = experiment: Reduction of body weight in high fat diet fed Sprague-Dawley rat at 30 mg/kg, po bid after 12 weeks; type: functional; design: scale not given: the % may be the effect or the level left
Rattus norvegicus [21] = species on record: Rattus norvegicus; experiment: Toxicity in high fat diet fed Sprague-Dawley rat after 12 weeks; type: organism-based; conditions: in vivo, 2016 h

Sequence of Sodium-dependent dopamine transporter (Homo sapiens) (Q01959 whole entry): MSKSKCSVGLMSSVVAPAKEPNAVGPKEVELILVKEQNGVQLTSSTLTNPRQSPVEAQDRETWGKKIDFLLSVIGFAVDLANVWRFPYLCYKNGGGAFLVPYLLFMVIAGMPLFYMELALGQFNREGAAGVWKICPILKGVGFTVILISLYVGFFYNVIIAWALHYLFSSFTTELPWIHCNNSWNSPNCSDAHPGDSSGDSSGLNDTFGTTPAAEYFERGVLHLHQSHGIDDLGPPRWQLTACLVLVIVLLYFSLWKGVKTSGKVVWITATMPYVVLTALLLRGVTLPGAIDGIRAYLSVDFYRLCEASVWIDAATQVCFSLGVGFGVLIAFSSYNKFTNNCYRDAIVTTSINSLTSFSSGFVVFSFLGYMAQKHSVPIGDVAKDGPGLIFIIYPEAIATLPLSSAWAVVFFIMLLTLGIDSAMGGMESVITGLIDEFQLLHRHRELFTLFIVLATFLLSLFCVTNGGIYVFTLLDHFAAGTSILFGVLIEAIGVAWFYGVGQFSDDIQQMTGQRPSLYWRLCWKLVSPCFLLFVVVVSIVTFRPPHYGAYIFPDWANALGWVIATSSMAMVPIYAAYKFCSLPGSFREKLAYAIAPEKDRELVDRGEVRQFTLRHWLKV
Sequence of Somatostatin receptor type 5 (Homo sapiens) (P35346 whole entry): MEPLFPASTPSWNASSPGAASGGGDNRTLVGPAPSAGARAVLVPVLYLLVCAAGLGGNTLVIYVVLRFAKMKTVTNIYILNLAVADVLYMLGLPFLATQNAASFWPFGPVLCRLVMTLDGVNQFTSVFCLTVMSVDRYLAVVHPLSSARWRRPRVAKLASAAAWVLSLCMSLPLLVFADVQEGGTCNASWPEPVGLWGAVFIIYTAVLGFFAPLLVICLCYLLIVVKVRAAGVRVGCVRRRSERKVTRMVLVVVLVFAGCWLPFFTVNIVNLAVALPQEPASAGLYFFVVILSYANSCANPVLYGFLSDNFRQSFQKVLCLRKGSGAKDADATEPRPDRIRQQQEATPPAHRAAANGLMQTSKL
Sequence of Sodium-dependent noradrenaline transporter (Homo sapiens) (P23975 whole entry): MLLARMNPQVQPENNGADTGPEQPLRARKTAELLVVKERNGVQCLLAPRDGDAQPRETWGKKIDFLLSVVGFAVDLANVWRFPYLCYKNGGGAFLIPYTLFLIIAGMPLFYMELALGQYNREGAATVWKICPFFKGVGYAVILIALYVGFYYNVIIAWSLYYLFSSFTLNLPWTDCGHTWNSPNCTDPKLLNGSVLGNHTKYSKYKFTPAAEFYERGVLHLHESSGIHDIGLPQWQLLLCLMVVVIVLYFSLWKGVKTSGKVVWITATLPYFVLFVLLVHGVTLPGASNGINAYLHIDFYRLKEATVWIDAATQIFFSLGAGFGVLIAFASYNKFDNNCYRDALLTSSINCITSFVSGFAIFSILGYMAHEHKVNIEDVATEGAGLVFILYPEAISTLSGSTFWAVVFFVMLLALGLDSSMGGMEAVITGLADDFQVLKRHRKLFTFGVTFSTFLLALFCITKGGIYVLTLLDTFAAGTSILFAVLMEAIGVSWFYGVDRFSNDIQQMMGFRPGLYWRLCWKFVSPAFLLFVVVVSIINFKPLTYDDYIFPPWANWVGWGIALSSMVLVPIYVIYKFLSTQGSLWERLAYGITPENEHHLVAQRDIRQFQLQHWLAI
Sequence of Sodium-dependent serotonin transporter (Homo sapiens) (P31645 whole entry, looked up): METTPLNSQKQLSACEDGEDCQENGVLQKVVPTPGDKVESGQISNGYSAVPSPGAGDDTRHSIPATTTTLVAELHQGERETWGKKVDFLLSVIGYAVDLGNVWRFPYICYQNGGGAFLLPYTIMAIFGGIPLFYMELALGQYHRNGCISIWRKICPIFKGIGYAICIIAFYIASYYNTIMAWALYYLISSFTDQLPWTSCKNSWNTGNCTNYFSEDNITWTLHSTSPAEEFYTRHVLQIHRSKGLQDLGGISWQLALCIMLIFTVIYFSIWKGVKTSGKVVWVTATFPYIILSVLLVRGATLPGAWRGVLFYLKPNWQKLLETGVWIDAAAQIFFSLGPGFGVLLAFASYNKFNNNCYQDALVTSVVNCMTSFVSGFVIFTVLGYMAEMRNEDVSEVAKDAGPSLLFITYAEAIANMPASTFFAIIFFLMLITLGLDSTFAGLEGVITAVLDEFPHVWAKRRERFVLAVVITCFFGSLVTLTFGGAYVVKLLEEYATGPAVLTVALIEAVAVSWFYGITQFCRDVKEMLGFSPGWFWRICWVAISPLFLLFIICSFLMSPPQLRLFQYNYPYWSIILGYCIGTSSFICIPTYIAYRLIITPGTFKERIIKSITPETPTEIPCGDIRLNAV
Sequence of D(3) dopamine receptor (Homo sapiens) (P35462 whole entry): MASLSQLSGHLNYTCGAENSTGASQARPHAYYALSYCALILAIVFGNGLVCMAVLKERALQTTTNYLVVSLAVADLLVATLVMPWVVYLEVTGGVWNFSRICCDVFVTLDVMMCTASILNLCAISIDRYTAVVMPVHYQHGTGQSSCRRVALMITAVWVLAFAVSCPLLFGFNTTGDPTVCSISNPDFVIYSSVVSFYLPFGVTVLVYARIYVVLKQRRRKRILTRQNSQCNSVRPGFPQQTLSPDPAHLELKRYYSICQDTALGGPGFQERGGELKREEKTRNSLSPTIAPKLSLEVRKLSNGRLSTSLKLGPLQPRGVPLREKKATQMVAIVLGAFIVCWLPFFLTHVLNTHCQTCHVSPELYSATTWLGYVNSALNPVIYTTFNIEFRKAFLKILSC
T1 sequence (Q99705 whole entry): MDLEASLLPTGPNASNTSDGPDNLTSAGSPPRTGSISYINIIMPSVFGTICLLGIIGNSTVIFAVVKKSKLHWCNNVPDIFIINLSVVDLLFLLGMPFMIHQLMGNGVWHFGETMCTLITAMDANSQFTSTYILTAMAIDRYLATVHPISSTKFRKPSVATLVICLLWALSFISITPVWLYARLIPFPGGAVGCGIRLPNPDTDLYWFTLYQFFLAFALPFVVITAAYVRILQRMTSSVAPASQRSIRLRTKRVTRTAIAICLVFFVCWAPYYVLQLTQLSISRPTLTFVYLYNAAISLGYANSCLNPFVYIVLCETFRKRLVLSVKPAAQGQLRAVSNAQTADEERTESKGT

| Compound | inhibition [1] [%] | Ki [2] [µM] | EC50 [3] [µM] | Efficacy [3] [%] | inhibition [4] [%] | inhibition [5] [%] | inhibition [6] [%] | inhibition [7] [%] | inhibition [8] [%] | inhibition [9] [%] | inhibition [10] [%] | inhibition [11] [%] | also measured |
| --- | --- | --- | --- | --- | --- | --- | --- | --- | --- | --- | --- | --- | --- |
| CO[C@@H]1CN(CC2Cc3ccccc3C2)CC[C@H]1n1c(C)nc2cc(C)ccc21 | 8 | 0.047 | 0.069 | 90 | 40 | 33 | 6 | -8 | -2 | 24 | 14 | 63 | – |
| CO[C@@H]1CN(C[C@@H]2Cc3ccc(NC(=O)C(C)C)cc3C2)CC[C@H]1n1c(C)nc2cc(C)ccc21 | 10 | 0.031 | 0.04 | 74 | – | 7 | 3 | 3 | – | 1 | 32 | – | AUC [12]: 8.53 µg·h/mL; Cmax [13]: 1.28 µg/mL; clearance [14]: 2.19 L/h/kg; half-life [15]: 2.5 h; Vd [16]: 14 L/kg; bioavailability [17]: 61%; Kp at 5 min [18]: 0.06 |
| CO[C@@H]1CN(C[C@H]2Cc3ccc(Br)cc3C2)CC[C@H]1n1c(C)nc2cc(C)ccc21 | 80 | 0.005 | 0.02 | 92 | 84 | 81 | 48 | – | 54 | 69 | 59 | 31 | – |
| CO[C@H]1CN(CCCc2cccc(NC(=O)C3CC3)c2)CC[C@@H]1n1c(C)nc2cc(C)ccc21 | 32 | 0.0052 | 0.02 | 82 | 52 | 15 | 11 | – | 16 | 61 | 67 | – | – |
| CO[C@@H]1CN(C[C@H]2Cc3ccc(C#N)cc3C2)CC[C@H]1n1c(C(C)(C)O)nc2cc(C)ccc21 | -6 | 0.003 | 0.017 | 85 | 22 | 12 | 3 | – | 23 | 12 | 6 | 14 | AUC [12]: 4.73 µg·h/mL; Cmax [13]: 1.3 µg/mL; clearance [14]: 2.97 L/h/kg; half-life [15]: 1.9 h; Vd [16]: 3.6 L/kg; bioavailability [17]: 47%; Kp at 5 min [18]: 0.9; Activity (Rattus norvegicus [19]): 28%; Activity (Rattus norvegicus [20]): -0.7%; Activity (Rattus norvegicus [21]): Non-toxic |
| CO[C@@H]1CN(C[C@H]2Cc3ccc(Br)cc3C2)CC[C@H]1n1c(C(C)(C)O)nc2cc(C)ccc21 | 68 | 0.01 | 0.03 | 98 | 79 | 34 | -8 | 14 | – | 77 | 28 | 17 | – |
| CO[C@@H]1CN(C[C@H]2Cc3ccc(C#N)cc3C2)CC[C@H]1n1c(C(C)(C)O)nc2cc(C)c(F)cc21 | – | 0.0005 | – | – | – | – | – | – | – | – | – | – | – |
| COC(=O)Nc1ccc2c(c1)C[C@@H](CN1CC[C@@H](n3c(C)nc4cc(C)ccc43)[C@H](OC)C1)C2 | 65 | 0.02 | 0.02 | 81 | 28 | 14 | 22 | 8 | 10 | 64 | 95 | 29 | – |
| Cc1ccc2c(c1)nc(C)n2C1CCN(CCCc2cccc(NC(=O)C(C)C)c2)CC1 | 23 | 0.025 | 0.175 | 96 | – | 37 | 18 | 4 | 13 | 57 | 83 | – | – |
